{"source": "paper PMC10202051", "about": "“Molecular basis of differential HLA class I-restricted T cell recognition of a highly networked HIV peptide” (Nature Communications, 2023)", "test_system": "autologous B cells lysed by CTL Clone 3", "assay": "Chromium release assay with QW9-B53 specific CTL clone C3", "assay_type": "cell-based, human", "conditions": "effector/target 1:1, technical replicate"}
{"sequence": "QATQEVKNW [QW9_S3T]", "values": [{"measurement": "lysis of autologous B cells", "setting": "experiment-1", "value": 6.79}, {"measurement": "lysis of autologous B cells", "setting": "experiment-2", "value": 6.64}, {"measurement": "lysis of autologous B cells", "setting": "experiment-3", "value": 6.63}, {"measurement": "lysis of autologous B cells", "setting": "experiment-4", "value": 6.38}, {"measurement": "lysis of autologous B cells", "setting": "experiment-5", "value": 6.72}, {"measurement": "lysis of autologous B cells", "setting": "experiment-6", "value": 7.02}, {"measurement": "lysis of autologous B cells", "setting": "experiment-7", "value": 6.68}, {"measurement": "lysis of autologous B cells", "setting": "experiment-8", "value": 6.3}]}
